# Values of other authors, collected in patent publication US20160271121A1, “ANTIFUNGAL COMBINATION THERAPY” (Gavis Pharmaceuticals, priority 2015, published 2016).
# Tests used:
# onychomycosis = settings: 48 weeks of topical efinaconazole
# reference strains = settings: in vitro, versus other antifungals
compound,measurement,setting,value
"C=C1CCN([C@H](C)[C@](O)(Cn2cncn2)c2ccc(F)cc2F)CC1 [Efinaconazole, (2R,3R)-2-(2,4-difluorophenyl)-3-(4-methylenepiperidin-1-yl)-1-(1H-1,2,4-triazol-1-yl)butan-2-ol]",mycological cure rate compared with other antifungal agents,onychomycosis,more than that for 48 weeks of topical ciclopirox and comparable to 12 weeks of oral itraconazole
same,potency in broth dilution tests,reference strains,"more potent than terbinafine, ciclopirox, itraconazole, and amorolfine"
